Data published in PMC8795197, “Safety and activity of WX-0593 (Iruplinalkib) in patients with ALK- or ROS1-rearranged advanced non-small cell lung cancer: a phase 1 dose-escalation and dose-expansion trial” (Signal Transduction and Targeted Therapy, 2022).
Entries after “also recorded” stand apart in the source; their conditions may differ. Like-named read-outs stand apart in the source and are kept apart here.

Key:
ALK mutant C1156Y = ALK mutant C1156Y (Homo sapiens, UniProt Q9UM73, C1156Y); experiment: In vitro enzyme inhibition study; type: biochemical; conditions: difference in inhibitory activity within 3 times
ALK mutant C1156Y, sequence (Q9UM73 19-1620 C1156Y): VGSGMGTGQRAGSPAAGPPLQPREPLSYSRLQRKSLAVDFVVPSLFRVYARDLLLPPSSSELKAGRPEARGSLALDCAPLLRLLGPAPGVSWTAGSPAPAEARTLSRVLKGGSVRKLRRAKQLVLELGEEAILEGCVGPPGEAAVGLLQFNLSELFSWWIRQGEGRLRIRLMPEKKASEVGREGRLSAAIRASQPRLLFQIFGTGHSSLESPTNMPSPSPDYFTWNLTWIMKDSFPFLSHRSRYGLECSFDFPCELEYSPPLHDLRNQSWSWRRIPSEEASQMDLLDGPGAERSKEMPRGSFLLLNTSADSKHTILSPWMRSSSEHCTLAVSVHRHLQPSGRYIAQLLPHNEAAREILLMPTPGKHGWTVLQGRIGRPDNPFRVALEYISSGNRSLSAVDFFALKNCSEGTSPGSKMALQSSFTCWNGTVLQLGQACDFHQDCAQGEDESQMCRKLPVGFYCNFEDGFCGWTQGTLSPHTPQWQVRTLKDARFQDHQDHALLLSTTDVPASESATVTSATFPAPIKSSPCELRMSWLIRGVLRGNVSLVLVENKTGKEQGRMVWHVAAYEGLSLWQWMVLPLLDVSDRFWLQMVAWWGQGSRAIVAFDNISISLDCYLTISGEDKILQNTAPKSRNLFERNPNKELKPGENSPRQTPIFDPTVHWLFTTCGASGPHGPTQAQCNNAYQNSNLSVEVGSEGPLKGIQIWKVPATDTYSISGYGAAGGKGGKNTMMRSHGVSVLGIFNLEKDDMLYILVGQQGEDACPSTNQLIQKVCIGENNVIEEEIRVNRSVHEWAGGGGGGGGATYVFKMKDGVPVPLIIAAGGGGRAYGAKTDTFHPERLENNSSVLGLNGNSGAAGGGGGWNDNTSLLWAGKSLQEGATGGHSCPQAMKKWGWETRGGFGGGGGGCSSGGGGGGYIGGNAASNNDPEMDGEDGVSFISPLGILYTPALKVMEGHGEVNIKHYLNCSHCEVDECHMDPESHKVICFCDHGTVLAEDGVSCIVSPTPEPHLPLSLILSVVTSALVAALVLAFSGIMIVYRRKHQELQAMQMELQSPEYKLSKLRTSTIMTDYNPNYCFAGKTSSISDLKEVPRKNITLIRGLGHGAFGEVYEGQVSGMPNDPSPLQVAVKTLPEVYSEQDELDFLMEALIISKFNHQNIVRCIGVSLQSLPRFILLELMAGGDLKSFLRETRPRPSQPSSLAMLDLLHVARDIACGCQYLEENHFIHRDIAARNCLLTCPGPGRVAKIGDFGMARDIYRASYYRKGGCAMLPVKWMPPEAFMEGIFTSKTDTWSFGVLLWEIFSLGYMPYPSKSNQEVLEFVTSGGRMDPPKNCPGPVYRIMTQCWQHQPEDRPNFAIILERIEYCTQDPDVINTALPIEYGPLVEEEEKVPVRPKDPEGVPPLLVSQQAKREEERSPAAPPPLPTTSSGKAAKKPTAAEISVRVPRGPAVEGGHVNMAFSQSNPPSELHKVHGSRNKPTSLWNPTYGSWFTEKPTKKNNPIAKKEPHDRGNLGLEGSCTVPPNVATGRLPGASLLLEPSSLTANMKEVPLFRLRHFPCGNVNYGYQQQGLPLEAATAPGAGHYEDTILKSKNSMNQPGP
Text: (§1) The inhibitory activities were low for other serine, threonine, and tyrosine […], except for the EGFR wild type, within the tested concentration range.

ALK mutant L1196M = ALK mutant L1196M (Homo sapiens, UniProt Q9UM73, L1196M); experiment: In vitro enzyme inhibition study; type: biochemical; conditions: difference in inhibitory activity within 3 times
ALK mutant L1196M, sequence (Q9UM73 19-1620 L1196M): as the sequence (Q9UM73 19-1620 C1156Y) above, with Y1138C, L1178M counted along it
Text: as §1

ALK wild type = ALK wild type (Homo sapiens, UniProt Q9UM73); experiment: In vitro enzyme inhibition study; type: biochemical; conditions: difference in inhibitory activity within 3 times
ALK wild type, sequence (Q9UM73 19-1620): as the sequence (Q9UM73 19-1620 C1156Y) above, with Y1138C counted along it
Text: as §1

EGFR L858R/T790M = EGFR L858R/T790M (Homo sapiens, UniProt P00533, L858R/T790M); experiment: In vitro enzyme inhibition study; type: biochemical; conditions: difference in inhibitory activity within 3 times
EGFR L858R/T790M, sequence (P00533 25-1210 T790M/L858R): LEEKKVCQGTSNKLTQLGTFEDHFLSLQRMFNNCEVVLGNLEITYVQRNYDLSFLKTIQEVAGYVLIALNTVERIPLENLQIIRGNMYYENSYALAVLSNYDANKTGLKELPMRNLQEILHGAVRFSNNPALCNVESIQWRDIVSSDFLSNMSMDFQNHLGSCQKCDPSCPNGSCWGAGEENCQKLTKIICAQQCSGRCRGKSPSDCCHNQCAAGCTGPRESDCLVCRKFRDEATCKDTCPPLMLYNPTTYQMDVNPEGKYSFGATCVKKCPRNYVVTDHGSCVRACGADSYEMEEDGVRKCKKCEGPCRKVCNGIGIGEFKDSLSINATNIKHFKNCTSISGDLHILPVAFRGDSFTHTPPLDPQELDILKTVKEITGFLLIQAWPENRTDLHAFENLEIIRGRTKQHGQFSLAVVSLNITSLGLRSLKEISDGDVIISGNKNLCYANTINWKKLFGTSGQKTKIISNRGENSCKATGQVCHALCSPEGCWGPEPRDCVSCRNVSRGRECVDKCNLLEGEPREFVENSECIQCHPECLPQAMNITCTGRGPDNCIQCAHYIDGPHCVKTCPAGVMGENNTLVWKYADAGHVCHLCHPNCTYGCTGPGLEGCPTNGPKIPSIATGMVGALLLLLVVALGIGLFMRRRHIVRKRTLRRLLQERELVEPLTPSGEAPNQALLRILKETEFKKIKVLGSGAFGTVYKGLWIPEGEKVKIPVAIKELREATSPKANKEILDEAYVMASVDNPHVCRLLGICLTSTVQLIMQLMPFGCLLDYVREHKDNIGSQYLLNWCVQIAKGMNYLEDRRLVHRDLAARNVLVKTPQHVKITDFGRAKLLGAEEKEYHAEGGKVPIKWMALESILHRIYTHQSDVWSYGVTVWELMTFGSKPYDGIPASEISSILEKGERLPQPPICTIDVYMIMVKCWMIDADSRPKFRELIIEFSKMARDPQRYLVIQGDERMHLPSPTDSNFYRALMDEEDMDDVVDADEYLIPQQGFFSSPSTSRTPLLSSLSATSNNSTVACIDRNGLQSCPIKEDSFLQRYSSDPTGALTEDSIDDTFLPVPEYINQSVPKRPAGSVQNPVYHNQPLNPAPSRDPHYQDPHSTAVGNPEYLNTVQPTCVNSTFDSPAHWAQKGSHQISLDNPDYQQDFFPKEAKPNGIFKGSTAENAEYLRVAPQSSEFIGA
Text: as §1

[1] = tested on: 27 non-target kinases (MAP4K4 ... INSR, EGFR wild type); experiment: Inhibitory study of 27 non-target kinases; type: biochemical; conditions: except for EGFR wild type
[2] = tested on: remaining 17 GPCR targets; experiment: GPCR antagonist screening assay; type: cell-based; conditions: highest dose detected
Caco-2 cell monolayer = Caco-2 cell monolayer permeability assay; type: in vitro ADME
Text: The objective of this study was to determine the bidirectional permeability and efflux ratio (ER) of the test article WX-0593 using the Caco-2 cell monolayer model.

CYP3A4 = CYP3A4 (Homo sapiens, UniProt P08684); experiment: Metabolic enzyme phenotyping (chemical inhibitors, recombinant human P450); type: in vitro ADME
CYP3A4, sequence (P08684 whole entry): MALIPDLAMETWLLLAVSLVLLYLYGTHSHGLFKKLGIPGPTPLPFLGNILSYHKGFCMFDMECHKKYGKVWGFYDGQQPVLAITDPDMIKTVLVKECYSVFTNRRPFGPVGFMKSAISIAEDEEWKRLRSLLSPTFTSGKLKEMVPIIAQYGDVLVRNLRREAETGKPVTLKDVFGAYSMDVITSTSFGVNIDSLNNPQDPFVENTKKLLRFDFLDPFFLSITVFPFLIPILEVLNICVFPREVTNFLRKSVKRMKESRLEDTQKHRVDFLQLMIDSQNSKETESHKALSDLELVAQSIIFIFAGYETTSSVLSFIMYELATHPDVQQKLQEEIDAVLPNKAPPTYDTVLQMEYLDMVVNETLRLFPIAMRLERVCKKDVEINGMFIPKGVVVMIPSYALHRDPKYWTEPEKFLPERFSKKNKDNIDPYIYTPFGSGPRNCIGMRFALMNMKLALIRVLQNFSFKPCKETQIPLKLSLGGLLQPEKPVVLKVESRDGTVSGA
Text: Other isoenzymes (CYP1A2, CYP2B6, CYP2C8, CYP2C9, CYP2C19 and CYP2D6) played a secondary or insignificant role in the formation of M1, M2, and M5.

hERG = hERG (Homo sapiens, UniProt Q12809); experiment: Inhibition of hERG currents; type: cell-based; conditions: human; maximum tested dose 30 μM
Procedure: (§2) […]. Therefore, WX-0593 has a low risk of cardiotoxicity. There were no effects on the CNS and respiratory system in rats at doses of 3, 10, and 30 mg/kg. However, WX-0593 10 and 30 mg/kg may result in benign respiratory rate and decreases in minute ventilation in female rats. There were no effects on the cardiovascular system, blood pressure, ECG parameters or waveforms in monkeys at doses of 5, 10, and 25 mg/kg; 10 and 25 mg/kg may result in mild decreases in heart rate (within the normal range) and PR prolongation and QTc shortening associated with bradycardia within the normal range (no statistical difference when compared to the control arm). No cardiovascular system adverse reactions related to the test product were found. The human equivalent dose (using 60 kg) is 3636 mg/person in CNS, 3636 mg/person in male respiratory system and 363.6 mg/person in female respiratory system, and 607 mg/person in cardiovascular system.

hERG currents = hERG currents (Homo sapiens, UniProt Q12809); experiment: Inhibition of hERG currents; type: cell-based
hERG currents, sequence (Q12809 whole entry): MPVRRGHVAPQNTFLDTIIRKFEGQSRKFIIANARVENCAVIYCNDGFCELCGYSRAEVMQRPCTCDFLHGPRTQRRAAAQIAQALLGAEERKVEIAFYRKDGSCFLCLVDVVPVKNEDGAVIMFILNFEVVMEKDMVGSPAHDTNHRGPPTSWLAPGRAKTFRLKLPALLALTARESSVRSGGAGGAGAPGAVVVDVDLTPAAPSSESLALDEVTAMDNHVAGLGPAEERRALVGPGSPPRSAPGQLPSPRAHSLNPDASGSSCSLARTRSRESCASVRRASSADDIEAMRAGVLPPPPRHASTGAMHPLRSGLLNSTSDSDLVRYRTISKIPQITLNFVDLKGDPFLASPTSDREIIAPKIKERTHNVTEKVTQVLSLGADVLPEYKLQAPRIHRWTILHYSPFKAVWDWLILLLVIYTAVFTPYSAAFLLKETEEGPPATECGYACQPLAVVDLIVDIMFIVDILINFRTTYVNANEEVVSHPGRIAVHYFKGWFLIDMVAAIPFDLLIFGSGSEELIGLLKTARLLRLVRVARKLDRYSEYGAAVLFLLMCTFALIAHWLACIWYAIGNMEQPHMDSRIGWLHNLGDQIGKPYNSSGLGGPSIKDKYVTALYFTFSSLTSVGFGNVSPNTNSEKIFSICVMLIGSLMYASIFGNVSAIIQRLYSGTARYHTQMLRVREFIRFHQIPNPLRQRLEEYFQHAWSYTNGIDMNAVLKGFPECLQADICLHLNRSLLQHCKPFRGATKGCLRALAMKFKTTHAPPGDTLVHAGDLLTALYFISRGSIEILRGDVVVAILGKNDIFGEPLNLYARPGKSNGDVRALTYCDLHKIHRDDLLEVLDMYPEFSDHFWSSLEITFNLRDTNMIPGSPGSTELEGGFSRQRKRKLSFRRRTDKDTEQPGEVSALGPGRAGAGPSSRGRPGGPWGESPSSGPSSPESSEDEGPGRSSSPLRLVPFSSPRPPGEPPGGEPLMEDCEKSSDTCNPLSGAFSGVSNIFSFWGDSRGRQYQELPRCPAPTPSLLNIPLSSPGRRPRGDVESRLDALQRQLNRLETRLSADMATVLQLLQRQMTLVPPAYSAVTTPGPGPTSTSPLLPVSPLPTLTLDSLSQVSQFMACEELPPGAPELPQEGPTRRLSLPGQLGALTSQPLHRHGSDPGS
Procedure: as §2

[3] = General pharmacology: CNS and respiratory system; type: in vivo, rats
Procedure: as §2

[4] = Repeated-dose toxicity study, 28 days oral gavage; type: in vivo, rats; conditions: for AUC(0-t): po, read-out: AUC0-24h (Day 28)
Procedure: The severely toxic dose in 10% of the animals (STD10) in rodents was > 30 mg/kg. At a dose of 10 mg/kg/day, AUC0-24h (Day 28) was 16800 h·ng/mL in males and 17300 h·ng/mL in females, which is 4.5 times and 4.7 times of the exposure at the effective dose in mice (2.5 mg/kg, AUC0-24h: 3700 h·ng/mL). At a dose of 30 mg/kg/day, AUC0-24h (Day 28) was 27100 h·ng/mL in males and 42400 h·ng/mL in females, which is 7.3 times and 11.5 times of the exposure at the effective dose in nude mice (2.5 mg/kg, AUC0-24h: 3700 h·ng/mL).

Which results are given for COc1cc(N2CCC3(CCN(C)CC3)CC2)ccc1Nc1ncc(Cl)c(Nc2ccccc2P(C)(C)=O)n1 [WX-0593]?
inhibitory activity compared with brigatinib (ALK mutant C1156Y): comparable with the activity of brigatinib; also recorded: comparable to brigatinib; inhibitory activity compared with brigatinib (ALK mutant L1196M): comparable with the activity of brigatinib; also recorded: comparable to brigatinib; inhibitory activity compared with brigatinib (ALK wild type): comparable with the activity of brigatinib; also recorded: comparable to brigatinib; inhibitory activity compared with brigatinib (EGFR L858R/T790M): comparable with the activity of brigatinib; also recorded: comparable to brigatinib; inhibitory activity against non-target kinases [1]: no significant inhibitory activity; IC50 [2]: > 111 µM; efflux transporter substrate (Caco-2 cell monolayer): very likely to be a substrate of efflux transporters; permeability (Caco-2 cell monolayer; 50 µM): high permeability; permeability (Caco-2 cell monolayer; 0.5 and 5 µM): low permeability; major metabolic enzyme (formation of M1, M2, M5) (CYP3A4): primarily metabolized by CYP3A4; also recorded: CYP3A4 is the major metabolic enzyme; inhibition at 30 μM (hERG): 58.1%; IC50 (hERG currents): 20 µM; hERG slope (hERG currents): 0.95; effects on the CNS and respiratory system ([3]; 3, 10 and 30 mg/kg): no effects; human equivalent dose, CNS ([3]; using 60 kg): 3636 mg/person; human equivalent dose, female respiratory system ([3]; using 60 kg): 363.6 mg/person; human equivalent dose, male respiratory system ([3]; using 60 kg): 3636 mg/person; exposure as multiple of that at the effective dose in mice ([4]; 10 mg/kg/day, females): 4.7 times; exposure as multiple of that at the effective dose in mice ([4]; 10 mg/kg/day, males): 4.5 times; exposure as multiple of that at the effective dose in nude mice ([4]; 30 mg/kg/day, females): 11.5 times; exposure as multiple of that at the effective dose in nude mice ([4]; 30 mg/kg/day, males): 7.3 times; human equivalent dose ([4]; 1/10 of rat STD10, 60 kg/person): 29 mg/person; severely toxic dose in 10% of the animals (STD10) ([4]; 28 days oral gavage): > 30 mg/kg; AUC(0-t) ([4]; female, rat, in vivo, 10 mg/kg/day, females): 17.3 µg·h/mL; AUC(0-t) ([4]; female, rat, in vivo, 30 mg/kg/day, females): 42.4 µg·h/mL; AUC(0-t) ([4]; male, rat, in vivo, 10 mg/kg/day, males): 16.8 µg·h/mL; AUC(0-t) ([4]; male, rat, in vivo, 30 mg/kg/day, males): 27.1 µg·h/mL; NOAEL at 28 days ([4]; rat, in vivo, 28 days oral gavage): 10 mg/kg/day
